# Measurements reported in ChEMBL document CHEMBL1201862, “PubChem BioAssay data set” (2004).
# Activity calls are given as the source filed them.
# Tests used:
# [1] = NIH-3T3 fibroblast cytotoxicity, dose response, cytotoxicity control, cell-based, fluorescence, Alamar Blue, secondary assay (AID 2327); type: functional;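 further: NIH-3T3 mouse fibroblasts cultured with fluconazole at 8 µg/mL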
# [2] = C. albicans growth with fluconazole, confirmation, fluorescence, retest (AID 2467); type: functional, cell-based
# [3] = target: T1, Serine/threonine-protein phosphatase (Candida dubliniensis (strain CD36 / CBS 7987 / NCPF 3949 / NRRLY-17841) (Yeast), UniProt B9W6M3); test: calcineurin pathway inhibitors in yeast reporter, dose response, S. cerevisiae, CDRE-lacZ, luminescence, secondary (AID 2388); type: functional, cell-based;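 further: yeast reporter cells carrying a calcineurin-responsive lacZ construct stimulated with calcium chloride; luminescent beta-galactosidase reporter signal in whole cells rather than isolated phosphatase activity; potency for inhibition where a drop in reporter signal means calcineurin blockade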
# T1 sequence (B9W6M3 whole entry): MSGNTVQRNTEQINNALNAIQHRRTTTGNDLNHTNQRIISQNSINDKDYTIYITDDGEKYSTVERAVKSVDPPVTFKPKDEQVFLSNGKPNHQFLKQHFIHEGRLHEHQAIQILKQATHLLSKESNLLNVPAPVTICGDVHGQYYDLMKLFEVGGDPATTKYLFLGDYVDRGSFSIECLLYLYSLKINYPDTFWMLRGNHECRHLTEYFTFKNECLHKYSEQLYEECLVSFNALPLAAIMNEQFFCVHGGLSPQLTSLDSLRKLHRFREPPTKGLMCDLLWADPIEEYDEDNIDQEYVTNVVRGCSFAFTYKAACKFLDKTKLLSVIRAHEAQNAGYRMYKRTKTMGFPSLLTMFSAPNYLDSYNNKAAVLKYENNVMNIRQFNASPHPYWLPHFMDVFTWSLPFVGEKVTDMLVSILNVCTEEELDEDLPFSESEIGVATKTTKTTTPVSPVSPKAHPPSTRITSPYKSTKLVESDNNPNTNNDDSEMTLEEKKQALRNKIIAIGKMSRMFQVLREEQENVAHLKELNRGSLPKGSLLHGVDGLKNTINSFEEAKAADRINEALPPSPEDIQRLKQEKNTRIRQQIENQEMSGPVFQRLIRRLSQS
# [4] = target: Heat shock protein HSP 90-alpha (Homo sapiens, UniProt P07900); type: functional, organism-based
# [5] = target: ATP-dependent molecular chaperone HSP82 (Candida albicans (strain WO-1) (Yeast), UniProt C4YTQ8); test: loss of DOC-induced GRE-beta-galactosidase reporter signal, dose response, Hsp90 inhibitor project, S. cerevisiae, luminescence (AID 2400); type: functional, cell-based;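 further: beta-galactosidase luminescence from glucocorticoid response element reporter as proxy for Hsp90 function; inhibitor potency where signal loss means Hsp90 inhibition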
# [6] = target: 1-phosphatidylinositol 4,5-bisphosphate phosphodiesterase gamma-1 (Homo sapiens, UniProt P19174); test: Counterscreen for inhibitors of phospholipase C isozymes (PLC-B3): Fluorescence-based biochemical high throughput dose response assay to identify inhibitors of phospholipase C isozymes (PLC-gamma1).
# [7] = target: 1-phosphatidylinositol 4,5-bisphosphate phosphodiesterase beta-3 (Homo sapiens, UniProt Q01970); test: Fluorescence-based biochemical high throughput dose response assay to identify inhibitors of phospholipase C isozymes (PLC-B3).
# [8] = target: Potassium channel subfamily K member 9 (Homo sapiens, UniProt Q9NPC2); test: TASK3 (KCNK9) channel inhibitors, thallium flux, SAR follow-up, selectivity assay for TASK1 inhibitor project, cell-based, FluxOR thallium flux, concentration-response (AID 652211); type: functional;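 further: potency is for inhibitors of the channel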
# [9] = target: Endoplasmic reticulum aminopeptidase 1 (Homo sapiens, UniProt Q9NZ08); test: ERAP1 aminopeptidase inhibitors, dose response, biochemical, cherry-pick, set 2, plate reader (AID 743314)
# [10] = growth suppression of beta-catenin-knockout colon cells, dose response, cell-based, HCT116, human colon tumor (AID 1045); type: functional;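 further: HCT116 colon tumor cells with beta catenin knocked out; cells exposed to compound for 60 hours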
# [11] = Shn3 3'UTR reporter inhibitors, dose response, cell-based, Clone20 osteoblasts, firefly luciferase, cherry-picked (AID 624132); type: functional;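 further: firefly luciferase luminescence from reporter carrying the Shn3 3'UTR in osteoblasts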
# [12] = HepG2 cell cytotoxicity, dose response, cytotoxicity control for Shn3 inhibitor project, CellTiter-Glo, cherry-picked (AID 624134); type: functional, cell-based
# [13] = control 3'UTR Renilla luciferase suppression, dose response, counter-screen for Shn3 inhibitor project, cell-based, Clone20-Shn3RL, cherry-picked (AID 624133); type: functional
# Galanin receptor type 3 = target: T2, Galanin receptor type 3 (Homo sapiens, UniProt O60755); test: Fluorescence-based cell-based primary high throughput dose response assay to identify antagonists of the Galanin Receptor 3 (GalR3).; type: functional
# T2 sequence (O60755 whole entry): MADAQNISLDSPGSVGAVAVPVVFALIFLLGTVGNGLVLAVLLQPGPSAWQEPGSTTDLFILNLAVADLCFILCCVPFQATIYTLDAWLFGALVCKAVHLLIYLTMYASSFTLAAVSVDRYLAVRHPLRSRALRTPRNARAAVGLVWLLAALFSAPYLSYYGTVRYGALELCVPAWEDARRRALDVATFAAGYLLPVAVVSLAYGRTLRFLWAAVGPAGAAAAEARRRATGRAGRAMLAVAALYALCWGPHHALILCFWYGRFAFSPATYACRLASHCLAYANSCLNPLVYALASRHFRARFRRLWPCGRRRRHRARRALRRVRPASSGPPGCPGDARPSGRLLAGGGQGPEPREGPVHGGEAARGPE
# cells = type: functional, cell-based; details: HEK-CNG
# [14] = reduction of Shn3 3'UTR firefly luciferase signal, dose response, Schnurri-3 inhibitor project, cell-based, Clone20 osteoblasts, cherry-pick, set 2 (AID 720490); type: functional;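 further: actives lower the luminescence signal as inhibitors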
# [15] = inhibitors of control Renilla luciferase reporter, dose response, counter-screen for Shn3 3'UTR targeting project, Clone20-Shn3RL cells, dual-Glo, cherry-pick, set 2 (AID 720724); type: functional, cell-based; details: Dual-Go Shn3RL
# BJ [16] = test: cytotoxicity toward BJ-TERT fibroblasts, dose response, cell-based, RAS-independent, luminescence (AID 1933); type: functional; details: Homo sapiens
# BJ [17] = test: cells; type: functional, cell-based, Homo sapiens; details: Homo sapiens, BJ
# [18] = target: Luciferin 4-monooxygenase (Photinus pyralis, UniProt P08659); test: firefly luciferase enzyme inhibitors, dose response, biochemical, luminescence (AID 1891)
# [19] = Luminescence Cell-Based Dose Confirmation HTS to Identify Inhibitors of Platelet Dense Granule Release. [Related pubchem assays: 1663 (Primary HTS), 1678 (Summary of Project)]; type: functional
# BJ [20] = test: cytotoxicity toward BJ-TERT-LT-ST fibroblasts, dose response, cell-based, RAS-independent, luminescence (AID 1935); type: functional; details: Homo sapiens;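 further: BJ fibroblasts immortalized with TERT plus LT and ST oncogenes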
# [21] = cytotoxicity toward DRD oncogenic fibroblasts, dose response, cell-based, non-viral oncogenic, luminescence (AID 1934); type: functional; details: Homo sapiens
# BJ [22] = test: cytotoxicity toward Ras-transformed BJeLR fibroblasts, dose response, cell-based, alamar blue fluorescence, cherrypicked samples (AID 2631); type: functional; details: Homo sapiens;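 further: confirmatory dose-response assay in RAS-dependent BJ fibroblasts engineered with TERT, LT and ST, with cytotoxicity read by fluorescence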
# INS1 = test: beta cell apoptosis inhibitors, cytokine rescue, dose response, luminescence, retest (AID 449756); type: functional, cell-based; details: Rattus norvegicus;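 further: cell death triggered by IL-1 beta plus TNF-alpha plus IFN-gamma mixture; protective hits raise ATP signal compared with cytokine alone wells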
# [23] = HepG2 cell cytotoxicity, dose response, cytotoxicity control, ATP luminescence, cherry-pick, activator set 2 (AID 1053143); type: functional, cell-based
# [24] = target: Metabotropic glutamate receptor 3 (Rattus norvegicus, UniProt P31422); test: mGlu3 negative allosteric modulator potency, dose response, HEK/GIRK cells, thallium flux, rat (AID 651839); type: functional
# [25] = Late stage assay provider results from the probe development effort to identify inhibitors of the Plasmodium falciparum M17 Leucine Aminopeptidase (M17LAP): radiolabel-based cell-based dose response assay to identify compounds that inhibit P. falciparum growth in RBCs Set 2.; type: functional
# [26] = target: T3, High affinity choline transporter 1 (Homo sapiens, UniProt Q9GZV3); test: CHT choline uptake inhibitors, dose response, cell-based, HEK-293 hCHT, [3H]-choline uptake (AID 652177); type: functional
# T3 sequence (Q9GZV3 whole entry): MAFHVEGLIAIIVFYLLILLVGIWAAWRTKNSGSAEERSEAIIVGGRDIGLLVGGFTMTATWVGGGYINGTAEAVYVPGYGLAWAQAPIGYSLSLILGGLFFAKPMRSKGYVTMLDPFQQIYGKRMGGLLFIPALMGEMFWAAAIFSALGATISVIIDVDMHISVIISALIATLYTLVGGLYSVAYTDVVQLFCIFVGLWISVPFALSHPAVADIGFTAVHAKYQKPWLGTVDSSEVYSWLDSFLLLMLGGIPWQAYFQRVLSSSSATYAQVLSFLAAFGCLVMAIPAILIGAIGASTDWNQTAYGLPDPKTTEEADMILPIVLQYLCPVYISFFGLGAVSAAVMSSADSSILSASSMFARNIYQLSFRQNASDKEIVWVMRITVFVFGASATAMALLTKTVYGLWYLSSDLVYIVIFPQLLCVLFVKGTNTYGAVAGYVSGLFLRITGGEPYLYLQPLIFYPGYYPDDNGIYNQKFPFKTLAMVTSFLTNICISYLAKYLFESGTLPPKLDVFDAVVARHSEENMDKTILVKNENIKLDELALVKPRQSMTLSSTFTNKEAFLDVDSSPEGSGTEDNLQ
# [27] = miR-122 activators in hepatoma reporter cells, dose response, cell-based, Huh7 psiCHECK-miR122, Renilla luciferase, cherry-picked (AID 651956); type: functional;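 further: huh7 hepatoma cells stably carrying a psiCHECK-2 miR-122 sensor plasmid; renilla luciferase signal reporting endogenous miR-122 activity after 48 h compound exposure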
# Paired box protein Pax-8 = Paired box protein Pax-8 (Homo sapiens, UniProt Q06710); test: inhibitors of PAX8-driven TPO luciferase reporter, dose response, RMG-I cells, cherry-pick (AID 687027); type: functional, cell-based;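 further: luciferase reporter driven by Pax8 target thyroperoxidase promoter measured by SteadyGlo luminescence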
# [28] = IGROV1 ovarian cancer cell cytotoxicity, dose response, PAX8 inhibitor project, plate reader, dry powder samples (AID 743043); type: functional, cell-based; details: IGROV-1
# [29] = HEK293T cytotoxicity, dose response, cytotoxicity control for miR-122 modulator project, cell-based, inhibitor set, cherry-pick, set 2 (AID 720697); type: functional
# [30] = HEK293T cytotoxicity, dose response, cytotoxicity control for miR-122 modulator project, cell-based, activator set, cherry-pick (AID 720690); type: functional;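 further: HEK293T human cells scored for general mammalian cytotoxicity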
# [31] = cytotoxicity in OVCAR8 ovarian cancer cells, dose response, PAX8 project, cell-based, plate reader, dry powder samples (AID 743197); type: functional; details: OVCAR-8
# [32] = inhibitors of CMV-promoter luciferase reporter, dose response, counter-screen for Pax8 inhibitor project, cell-based, HEK293, luminescence, dry powder (AID 743020); type: functional
# [33] = A Cell-Based Confirmatory Screen for Compounds that Inhibit VEEV, TC-83 (8).; type: functional
# [34] = A Cell-Based Confirmatory Screen for Compounds that Inhibit VEEV, TC-83 (6).; type: functional
# Paired box protein Pax-8, sequence (Q06710 whole entry): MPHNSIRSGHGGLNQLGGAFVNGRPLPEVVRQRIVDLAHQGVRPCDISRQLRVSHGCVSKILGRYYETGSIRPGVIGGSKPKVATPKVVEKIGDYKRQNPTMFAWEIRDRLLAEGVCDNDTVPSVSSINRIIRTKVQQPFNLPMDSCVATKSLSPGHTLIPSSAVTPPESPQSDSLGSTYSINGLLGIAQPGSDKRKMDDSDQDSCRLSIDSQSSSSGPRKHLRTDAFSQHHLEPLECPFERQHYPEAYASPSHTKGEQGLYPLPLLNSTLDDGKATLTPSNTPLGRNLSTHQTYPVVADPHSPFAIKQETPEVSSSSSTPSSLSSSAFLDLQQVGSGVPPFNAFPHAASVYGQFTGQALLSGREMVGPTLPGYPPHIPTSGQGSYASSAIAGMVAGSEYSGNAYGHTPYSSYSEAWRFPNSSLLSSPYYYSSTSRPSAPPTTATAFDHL
# Metabotropic glutamate receptor 3, sequence (P31422 whole entry): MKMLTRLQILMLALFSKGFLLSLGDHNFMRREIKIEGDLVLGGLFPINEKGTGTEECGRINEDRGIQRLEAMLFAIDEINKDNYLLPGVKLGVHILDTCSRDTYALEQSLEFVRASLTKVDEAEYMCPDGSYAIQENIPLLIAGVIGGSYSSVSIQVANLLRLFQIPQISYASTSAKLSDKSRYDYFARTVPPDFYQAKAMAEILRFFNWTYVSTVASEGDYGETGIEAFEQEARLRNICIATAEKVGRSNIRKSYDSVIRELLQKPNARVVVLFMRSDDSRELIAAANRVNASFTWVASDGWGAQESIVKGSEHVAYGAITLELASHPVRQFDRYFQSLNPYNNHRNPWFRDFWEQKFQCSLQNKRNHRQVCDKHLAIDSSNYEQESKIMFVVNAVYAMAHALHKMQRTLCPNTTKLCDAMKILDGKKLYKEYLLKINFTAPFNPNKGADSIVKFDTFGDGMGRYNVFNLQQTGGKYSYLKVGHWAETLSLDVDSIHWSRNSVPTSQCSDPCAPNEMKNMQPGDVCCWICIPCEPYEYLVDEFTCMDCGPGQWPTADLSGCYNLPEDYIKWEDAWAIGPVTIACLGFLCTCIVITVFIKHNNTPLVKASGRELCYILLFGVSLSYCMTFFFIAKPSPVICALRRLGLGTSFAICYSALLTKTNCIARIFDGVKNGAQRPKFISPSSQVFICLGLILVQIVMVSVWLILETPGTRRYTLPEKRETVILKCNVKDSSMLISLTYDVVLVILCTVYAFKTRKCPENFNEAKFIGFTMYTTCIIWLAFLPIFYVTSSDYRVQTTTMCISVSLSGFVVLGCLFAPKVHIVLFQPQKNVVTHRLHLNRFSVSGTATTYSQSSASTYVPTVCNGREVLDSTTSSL
# Luciferin 4-monooxygenase, sequence (P08659 whole entry): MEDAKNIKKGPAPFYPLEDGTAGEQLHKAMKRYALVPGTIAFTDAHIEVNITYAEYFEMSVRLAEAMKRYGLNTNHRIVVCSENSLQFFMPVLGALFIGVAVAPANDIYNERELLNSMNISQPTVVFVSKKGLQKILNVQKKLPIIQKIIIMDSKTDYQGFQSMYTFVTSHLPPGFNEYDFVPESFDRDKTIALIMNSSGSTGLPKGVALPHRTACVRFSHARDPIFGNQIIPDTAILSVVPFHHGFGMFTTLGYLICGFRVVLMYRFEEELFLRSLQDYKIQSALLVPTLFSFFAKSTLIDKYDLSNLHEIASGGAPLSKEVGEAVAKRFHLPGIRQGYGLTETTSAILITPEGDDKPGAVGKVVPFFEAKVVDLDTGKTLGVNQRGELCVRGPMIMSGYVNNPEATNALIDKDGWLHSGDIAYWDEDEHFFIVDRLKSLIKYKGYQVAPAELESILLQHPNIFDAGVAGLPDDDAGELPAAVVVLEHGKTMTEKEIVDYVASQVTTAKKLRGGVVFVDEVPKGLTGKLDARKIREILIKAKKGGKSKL
# Potassium channel subfamily K member 9, sequence (Q9NPC2 whole entry): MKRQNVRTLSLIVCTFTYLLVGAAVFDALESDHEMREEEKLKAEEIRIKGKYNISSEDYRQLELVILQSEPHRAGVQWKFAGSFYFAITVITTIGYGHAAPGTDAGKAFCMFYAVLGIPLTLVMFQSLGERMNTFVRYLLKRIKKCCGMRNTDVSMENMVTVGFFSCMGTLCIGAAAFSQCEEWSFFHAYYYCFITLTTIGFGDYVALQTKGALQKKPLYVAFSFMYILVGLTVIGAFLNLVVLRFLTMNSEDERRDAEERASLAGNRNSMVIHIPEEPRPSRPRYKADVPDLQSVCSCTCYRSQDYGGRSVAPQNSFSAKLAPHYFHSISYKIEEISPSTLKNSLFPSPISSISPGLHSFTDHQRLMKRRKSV
# 1-phosphatidylinositol 4,5-bisphosphate phosphodiesterase gamma-1, sequence (P19174 whole entry): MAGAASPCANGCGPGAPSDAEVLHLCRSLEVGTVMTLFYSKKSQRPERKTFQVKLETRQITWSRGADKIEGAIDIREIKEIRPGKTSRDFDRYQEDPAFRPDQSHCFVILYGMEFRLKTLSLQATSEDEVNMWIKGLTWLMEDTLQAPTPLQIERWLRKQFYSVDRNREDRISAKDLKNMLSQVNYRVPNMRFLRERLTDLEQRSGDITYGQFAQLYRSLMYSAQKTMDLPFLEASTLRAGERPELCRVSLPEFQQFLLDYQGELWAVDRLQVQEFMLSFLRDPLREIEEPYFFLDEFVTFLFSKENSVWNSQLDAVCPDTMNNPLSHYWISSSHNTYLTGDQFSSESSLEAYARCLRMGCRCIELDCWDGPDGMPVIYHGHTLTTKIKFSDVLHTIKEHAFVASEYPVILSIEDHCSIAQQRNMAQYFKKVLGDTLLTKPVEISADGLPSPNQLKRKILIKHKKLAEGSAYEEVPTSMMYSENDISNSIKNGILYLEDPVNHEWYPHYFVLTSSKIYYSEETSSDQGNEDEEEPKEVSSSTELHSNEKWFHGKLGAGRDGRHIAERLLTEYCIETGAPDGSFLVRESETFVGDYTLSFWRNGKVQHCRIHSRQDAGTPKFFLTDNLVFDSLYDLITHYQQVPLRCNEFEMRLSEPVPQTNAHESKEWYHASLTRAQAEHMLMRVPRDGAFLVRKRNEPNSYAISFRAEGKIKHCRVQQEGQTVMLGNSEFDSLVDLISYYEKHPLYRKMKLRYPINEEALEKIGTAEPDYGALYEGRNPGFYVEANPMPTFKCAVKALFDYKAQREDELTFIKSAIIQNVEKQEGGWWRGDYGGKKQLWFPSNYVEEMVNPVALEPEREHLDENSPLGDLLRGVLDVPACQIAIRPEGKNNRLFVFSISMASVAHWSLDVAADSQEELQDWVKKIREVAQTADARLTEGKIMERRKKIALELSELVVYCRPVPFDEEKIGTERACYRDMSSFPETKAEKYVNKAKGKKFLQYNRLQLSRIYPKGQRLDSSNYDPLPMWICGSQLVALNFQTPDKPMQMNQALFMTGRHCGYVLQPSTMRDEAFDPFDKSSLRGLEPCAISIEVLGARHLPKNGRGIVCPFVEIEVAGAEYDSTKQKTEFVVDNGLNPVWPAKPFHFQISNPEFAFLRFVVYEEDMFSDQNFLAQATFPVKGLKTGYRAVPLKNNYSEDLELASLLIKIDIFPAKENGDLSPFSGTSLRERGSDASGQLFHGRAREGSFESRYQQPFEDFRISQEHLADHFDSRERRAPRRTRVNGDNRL
# ATP-dependent molecular chaperone HSP82, sequence (C4YTQ8 whole entry): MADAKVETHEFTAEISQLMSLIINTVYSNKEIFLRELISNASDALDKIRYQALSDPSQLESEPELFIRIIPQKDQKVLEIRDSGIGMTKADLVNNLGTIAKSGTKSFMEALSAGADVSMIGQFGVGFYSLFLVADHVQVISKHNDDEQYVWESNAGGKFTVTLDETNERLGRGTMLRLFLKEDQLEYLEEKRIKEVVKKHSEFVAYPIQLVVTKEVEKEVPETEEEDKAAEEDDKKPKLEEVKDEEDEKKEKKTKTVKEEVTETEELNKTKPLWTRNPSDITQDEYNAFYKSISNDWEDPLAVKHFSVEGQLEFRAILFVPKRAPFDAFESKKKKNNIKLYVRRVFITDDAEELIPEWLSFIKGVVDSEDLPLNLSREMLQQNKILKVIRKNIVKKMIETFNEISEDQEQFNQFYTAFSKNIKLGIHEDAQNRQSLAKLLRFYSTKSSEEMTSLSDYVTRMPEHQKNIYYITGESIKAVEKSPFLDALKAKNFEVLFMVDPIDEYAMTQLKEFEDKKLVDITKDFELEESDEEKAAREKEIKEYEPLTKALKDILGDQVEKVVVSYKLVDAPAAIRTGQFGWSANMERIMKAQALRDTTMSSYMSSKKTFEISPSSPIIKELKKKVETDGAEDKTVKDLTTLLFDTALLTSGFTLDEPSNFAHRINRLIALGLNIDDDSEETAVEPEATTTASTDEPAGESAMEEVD
structure (smiles),measurement,setting,value
N=C(Cc1ccc(Cl)c(Cl)c1)NOC(=O)c1cccs1,EC50,[1],> 160 µM (inconclusive)
same,EC50,[2],0.376 µM (active)
same,EC50,[3],> 180 µM (inactive)
same,AC50,[4],3.01 µM (active)
same,EC50,[5],11.6 µM (active)
same,IC50,[6],> 122 µM (inactive)
same,IC50,[7],> 122 µM (inactive)
Cc1cccc(C(=O)Nc2cccc(NC(=O)c3cccc(Cl)c3)c2)c1,IC50,[8],13.4 µM (active)
Cc1c(C)c2ccc(O)c(CN3CCCC3)c2oc1=O,AC50,[9],7.31 µM (active)
CCCOC(=O)c1ccc(OCC(O)Cn2c(C)nc3ccccc32)cc1 (centres undefined),EC50,[10],14.6 µM (active)
same,AC50,[11],0.62 µM (active)
same,AC50,[12],35.6 µM (active)
same,AC50,[13],8.49 µM (active)
same,IC50,Galanin receptor type 3,1.57 µM (active)
same,EC50,cells,> 29.9 µM (inactive)
same,AC50,[14],3.38 µM (active)
same,AC50,[15],5.13 µM (active)
Cc1occc1C(=O)N/N=C/c1ccc2c(c1)OCO2,EC50,BJ [16],8.43 µM (active)
same,EC50,BJ [17],7.36 µM (active)
same,EC50,[18],1.4 µM (active)
same,EC50,[19],1.77 µM (active)
same,EC50,BJ [20],16.8 µM (active)
same,EC50,[21],5.68 µM (active)
same,EC50,BJ [22],> 133 µM (inactive)
same,AC50,INS1,4.17 µM (active)
same,AC50,[23],8.12 µM (active)
COc1ccc(COc2ccc(C(=O)N3CCC[C@@H](CO)C3)cc2)cc1,IC50,[24],6.84 µM (active)
CCCCOc1ccc(C(=O)NO)cc1,IC50,[25],11.3 µM (inactive)
COc1ccc(C(=O)NCc2cc(C(C)C)no2)cc1OC1CCCN(C)C1 (centres undefined),IC50,[26],1.25 µM (active)
COc1ccc(CN(C)C[C@H]2OCCCC[C@H](C)Oc3ccc(NC(=O)Nc4ccc(C(F)(F)F)cc4)cc3C(=O)N([C@@H](C)CO)C[C@@H]2C)cc1,AC50,[27],6.4 µM (active)
same,AC50,Paired box protein Pax-8,8.38 µM (active)
same,AC50,[28],53.8 µM (active)
same,AC50,[29],11.3 µM (active)
same,AC50,[30],18.3 µM (active)
same,AC50,[31],> 70 µM (inactive)
C[C@H](CO)N1C[C@H](C)[C@@H](CN(C)C(=O)Nc2cccc3ccccc23)OCCCC[C@H](C)Oc2ccc(NC(=O)c3ccncc3)cc2C1=O,AC50,Paired box protein Pax-8,3.61 µM (active)
same,AC50,[32],49.1 µM (active)
COc1ccc(-n2c(CN3CCNCC3)nc3ccc([N+](=O)[O-])cc3c2=O)cc1,IC50,[33],< 0.218 µM (active)
same,IC50,[34],< 0.22 µM (active)
